Results from patent US8846656B2, “Tetrahydropyrido-pyridine and tetrahydropyrido-pyrimidine compounds and use thereof as C5a receptor modulators” (Novartis AG, priority 2011, dated 2014).

How the values were obtained:
human C5aR = human C5aR (Homo sapiens (Human), UniProt P21730); assay: FLIPR assay: inhibition of C5a-mediated calcium mobilization; format: cell-based; conditions: stable cell line over expressing human C5aR & Gα15, human C5a at EC50 (0.1-0.25 nM)
How it was run: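 Compounds were added for 30 minutes at room temperature (1% DMSO) ahead of C5a stimulation. Before this, cells were dye-loaded for 1 h at 37° C: calcium 5 with 2.5 mM probenecid in HBSS, 20 mM HEPES, 0.1% BSA. Cells co-express human C5aR and Gα15; read-out is FLIPR Tetra calcium flux.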

CD11b = assay: Human whole blood CD11b up-regulation assay; format: cell-based; conditions: Homo sapiens, 2 nM human C5a, CD15+ granulocytes, read-out: hCD11b IC50
How it was run: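 Flow cytometric read-out: CD11b median fluorescence intensity of CD15+ granulocytes, 10,000 events. Stimulus was 2 nM human C5a for 15 min at room temperature, following 10 min compound exposure in 1% DMSO in fresh sodium-heparin whole blood; staining done on ice and erythrocytes lysed.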

Chain of human C5aR (P21730 whole entry): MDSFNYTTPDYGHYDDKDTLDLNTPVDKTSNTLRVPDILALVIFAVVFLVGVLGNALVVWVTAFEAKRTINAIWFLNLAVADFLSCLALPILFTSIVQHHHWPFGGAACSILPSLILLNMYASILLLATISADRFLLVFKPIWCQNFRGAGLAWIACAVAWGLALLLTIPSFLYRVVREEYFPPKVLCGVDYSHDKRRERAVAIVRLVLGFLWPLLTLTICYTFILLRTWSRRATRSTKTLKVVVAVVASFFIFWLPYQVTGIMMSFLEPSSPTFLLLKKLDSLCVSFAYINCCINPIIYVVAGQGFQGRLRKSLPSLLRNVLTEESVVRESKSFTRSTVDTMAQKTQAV

| Compound | IC50 (human C5aR) [nM] | IC50 (CD11b) [nM] |
| --- | --- | --- |
| COc1nc(-c2c(C)ccc3[nH]nc(C)c23)nc2c1CN(c1cc(C3(C)COC3)ccc1C)CC2 [Example 31-H, 2-(3,5-dimethyl-1H-indazol-4-yl)-4-methoxy-6-(2-methyl-5-(3-methyloxetan-3-yl)phenyl)-5,6,7,8-tetrahydropyrido[4,3-d]pyrimidine] | 77 | 72 |
| [2H]C1([2H])c2c(C)cc(-c3cccc4[nH]cc(C)c34)nc2CCN1c1cc(C(C)C)ccc1C [Example 40-S] | 78 | 793 |
| CCc1cccc(CC)c1-c1cc(C)c2c(n1)CCN(c1cc(C(C)C)ccc1C)C2 [Example 41-J, 2-(2,6-diethylphenyl)-6-(5-isopropyl-2-methylphenyl)-4-methyl-5,6,7,8-tetrahydro-1,6-naphthyridine] | 22 | 302 |
| Cc1ccc2[nH]nc(C)c2c1-c1nc2c(c(N3CC[C@H]4OC[C@H]4C3)n1)CN(c1c(Cl)c(C3CC3)nn1C)CC2 (racemic) [Example 69-M, (cis)-3-(6-(4-chloro-3-cyclopropyl-1-methyl-1H-pyrazol-5-yl)-2-(3,5-dimethyl-1H-indazol-4-yl)-5,6,7,8-tetrahydropyrido[4,3-d]pyrimidin-4-yl)-7-oxa-3-azabicyclo[4.2.0]octane] | 8 | 45 |
| CO[C@@H]1CCN(c2nc(-c3c(C)ccnc3C)nc3c2CN(c2cc(C(C)C)ccc2C)CC3)[C@H](C)C1 [Example 21-S, 2-(2,4-dimethylpyridin-3-yl)-6-(5-isopropyl-2-methylphenyl)-4-((2R,4R)-4-methoxy-2-methylpiperidin-1-yl)-5,6,7,8-tetrahydropyrido[4,3-d]pyrimidine] | 30 | 180 |
| Cc1ccc(C(C)C)cc1N1CCc2nc(-c3cccc4[nH]cc(C)c34)nc(N3CCN(C4COC4)[C@H](C)C3)c2C1 [Example 30-A, (R)-6-(5-Isopropyl-2-methylphenyl)-2-(3-methyl-1H-indol-4-yl)-4-(3-methyl-4-(oxetan-3-yl)piperazin-1-yl)-5,6,7,8-tetrahydropyrido[4,3-d]pyrimidine] | 16 | 5780 |
| [2H]C1([2H])c2c(C)cc(-c3c(C)ccc4[nH]ncc34)nc2CCN1c1cc(OC)ccc1C [Example 45, 6-(5-Methoxy-2-methylphenyl)-4-methyl-2-(5-methyl-1H-indazol-4-yl)-5,6,7,8-tetrahydro(5,5-^2H2)-1,6-naphthyridine] | 27 | 583 |
| Cc1ccc(C(C)C)cc1N1CCc2nc(-c3cccc4[nH]cc(C)c34)nc(N3CC[C@H](O)[C@H](C)C3)c2C1 (racemic) [Example 17-AN, racemic-1-(6-(5-isopropyl-2-methylphenyl)-2-(3-methyl-1H-indol-4-yl)-5,6,7,8-tetrahydropyrido[4,3-d]pyrimidin-4-yl)-3-methylpiperidin-4-ol] | 31 | 423 |
| Cc1ccc(C(C)C)cc1N1CCc2nc(-c3c(C)ccc4[nH]ncc34)nc(N3CCN(CC(N)=O)C[C@H]3C)c2C1 [Example 24-L, (R)-2-(4-(6-(5-isopropyl-2-methylphenyl)-2-(5-methyl-1H-indazol-4-yl)-5,6,7,8-tetrahydropyrido[4,3-d]pyrimidin-4-yl)-3-methylpiperazin-1-yl)acetamide] | 6 | 391 |
| CO[C@@H]1CCN(c2nc(-c3cccc4[nH]cc(C)c34)nc3c2CN(c2cc(Cl)ccc2C)CC3)CC1(C)C [Example 17-BK, (R)-6-(5-chloro-2-methylphenyl)-4-(4-methoxy-3,3-dimethylpiperidin-1-yl)-2-(3-methyl-1H-indol-4-yl)-5,6,7,8-tetrahydropyrido[4,3-d]pyrimidine] | 163 | 40 |
| CNCCOc1nc(-c2c(C)ccc3[nH]nc(C)c23)nc2c1CN(c1cc(C(C)C)ccc1C)CC2 [Example 63-G, 2-((2-(3,5-dimethyl-1H-indazol-4-yl)-6-(5-isopropyl-2-methylphenyl)-5,6,7,8-tetrahydropyrido[4,3-d]pyrimidin-4-yl)oxy)-N-methylethanamine] | 31 | 197 |
| CCn1nc(C2CC2)c(Cl)c1N1CCc2nc(-c3c(C)ccc4[nH]nc(C)c34)nc(N3CCOC[C@H]3C)c2C1 [Example 70-G, (R)-4-(6-(4-Chloro-3-cyclopropyl-1-ethyl-1H-pyrazol-5-yl)-2-(3,5-dimethyl-1H-indazol-4-yl)-5,6,7,8-tetrahydropyrido[4,3-d]pyrimidin-4-yl)-3-methylmorpholine] | 9 | 19 |
| Cc1ccc2[nH]nc(C)c2c1-c1nc2c(c(N3CCOC[C@H]3C)n1)CN(c1c(Cl)c(C3CC3)nn1C)CC2 [Example 70-J] | 12 | 39 |
| CO[C@@H]1CCN(c2nc(-c3cc(C)ccc3C)nc3c2CN(c2cc(C(C)C)ccc2C)CC3)[C@H](C)C1 [Example 21-E, 2-(2,5-dimeethylphenyl)-6-(5-isopropyl-2-methylphenyl)-4-((2R,4R)-4-methoxy-2-methylpiperidin-1-yl)-5,6,7,8-tetrahydropyrido[4,3-d]pyrimidine] | 23 | 422 |

The next compounds have a lower IC50 (human C5aR) than those just listed; values first:

| IC50 (human C5aR) [nM] | IC50 (CD11b) [nM] | Compound |
| --- | --- | --- |
| 2 | 17 | CO[C@@H]1CCN(c2nc(-c3c(C(F)(F)F)cnc4[nH]ccc34)nc3c2CN(c2cc(C(C)C)ccc2C)CC3)[C@H](C)C1 [Example 22-C, 6-(5-Isopropyl-2-methylphenyl)-4-((2R,4R)-4-methoxy-2-methylpiperidin-1-yl)-2-(5-(trifluoromethyl)-1H-pyrrolo[2,3-b]pyridin-4-yl)-5,6,7,8-tetrahydropyrido[4,3-d]pyrimidine] |
| 4 | 50 | CO[C@H]1CCN(c2nc(-c3c(C(C)C)ccc4[nH]ncc34)nc3c2CN(c2cc(C4(C)COC4)ccc2C)CC3)CC1(C)C [Example 19-AC, (S)-2-(5-isopropyl-1H-indazol-4-yl)-4-(4-methoxy-3,3-dimethylpiperidin-1-yl)-6-(2-methyl-5-(3-methyloxetan-3-yl)phenyl)-5,6,7,8-tetrahydropyrido[4,3-d]pyrimidine] |
| 2 | 10 | CCn1nc(C2CC2)c(F)c1N1CCc2nc(-c3c(C)ccc4[nH]nc(C)c34)nc(N3CC[C@@H](OC)C(C)(C)C3)c2C1 [Example 71-B, (R)-6-(3-Cyclopropyl-1-ethyl-4-fluoro-1H-pyrazol-5-yl)-2-(3,5-dimethyl-1H-indazol-4-yl)-4-(4-methoxy-3,3-dimethylpiperidin-1-yl)-5,6,7,8-tetrahydropyrido[4,3-d]pyrimidine] |
| 0.5 | 7 | CO[C@@H]1CCN(c2nc(-c3c(C)cccc3C)nc3c2CN(c2cc(C(C)C)ccc2C)CC3)[C@H](C)C1 [Example 21-D, 2-(2,6-Dimethylphenyl)-6-(5-isopropyl-2-methylphenyl)-4-((2R,4R)-4-methoxy-2-methylpiperidin-1-yl)-5,6,7,8-tetrahydropyrido[4,3-d]pyrimidine] |
| 1 | 30 | Cc1ccc(C(C)C)cc1N1CCc2nc(-c3c(C)ccc4[nH]nc(C)c34)nc(N3CC(N(C)C)C3)c2C1 [Example 65-A, 1-(2-(3,5-Dimethyl-1H-indazol-4-yl)-6-(5-isopropyl-2-methylphenyl)-5,6,7,8-tetrahydropyrido[4,3-d]pyrimidin-4-yl)-N,N-dimethylazetidin-3-amine] |
| 0.5 | 22 | CO[C@@H]1CCN(c2nc(-c3c(C)ccc4[nH]nc(C)c34)nc3c2CN(c2cc(C4CC4)nn2C)CC3)CC1(C)C [Example 23-I, (R)-6-(3-cyclopropyl-1-methyl-1H-pyrazol-5-yl)-2-(3,5-dimethyl-1H-indazol-4-yl)-4-(4-methoxy-3,3-dimethylpiperidin-1-yl)-5,6,7,8-tetrahydropyrido[4,3-d]pyrimidine] |
| 4 | 25 | CO[C@@H]1CN(c2nc(-c3c(C)ccc4[nH]nc(C)c34)nc3c2CN(c2c(Cl)c(C4CC4)nn2C)CC3)[C@H]1C (racemic) [Example 69-I, 6-(4-chloro-3-cyclopropyl-1-methyl-1H-pyrazol-5-yl)-2-(3,5-dimethyl-1H-indazol-4-yl)-4-((trans)-methoxy-2-methylazetidin-1-yl)-5,6,7,8-tetrahydropyrido[4,3-d]pyrimidine] |
| 1 | 178 | Cc1ccc(C(C)C)cc1N1CCc2nc(-c3cccc4[nH]cc(C)c34)nc(N3CCN(CC(N)=O)C[C@H]3C)c2C1 [Example 52-C, (R)-2-(4-(6-(5-Isopropyl-2-methylphenyl)-2-(3-methyl-1H-indol-4-yl)-5,6,7,8-tetrahydropyrido[4,3-d]pyrimidin-4-yl)-3-methylpiperazin-1-yl)acetamide] |
| 5 | 28 | CO[C@H]1CCN(c2nc(-c3c(C(C)C)ccc4[nH]ncc34)nc3c2CN(c2cc(C(C)C)nn2C)CC3)CC1(C)C [Example 23-F, (S)-6-(3-isopropyl-1-methyl-1H-pyrazol-5-yl)-2-(5-isopropyl-1H-indazol-4-yl)-4-(4-methoxy-3,3-dimethylpiperidin-1-yl)-5,6,7,8-tetrahydropyrido[4,3-d]pyrimidine] |
| 4 | 196 | Cc1ccc2[nH]nc(C)c2c1-c1nc2c(c(N3C[C@@H](O)[C@@H]3C)n1)CN(c1c(Cl)c(C3CC3)nn1C)CC2 (racemic) [Example 69-H, (trans)-1-(6-(4-chloro-3-cyclopropyl-1-methyl-1H-pyrazol-5-yl)-2-(3,5-dimethyl-1H-indazol-4-yl)-5,6,7,8-tetrahydropyrido[4,3-d]pyrimidin-4-yl)-2-methylazetidin-3-ol] |
